Results taken from the supplement of paper PMC13380429.
Where a name gives a salt, the structure may show the parent alone.

Tests used:
Conditions in all cases: 72 h
[1] = test system: Caco-2; experiment: drug sensitivity score (DSS) for viability; higher = more toxic; extreme values may be limits of the assay
[2] = test system: Calu-3; experiment: as above
[3] = test system: HepG2; experiment: as above
[4] = test system: U2OS; experiment: as above
[5] = test system: Vero E6; experiment: as above
[6] = test system: Caco-2; experiment: cell viability relative to DMSO; higher = less toxic
[7] = test system: Calu-3; experiment: as above
[8] = test system: HepG2; experiment: as above
[9] = test system: U2OS; experiment: as above
[10] = test system: Vero E6; experiment: as above
[11] = test system: Caco-2; experiment: relative viability EC50 (midpoint between 100% and the lowest measured viability); higher = less toxic
[12] = test system: Calu-3; experiment: as above
[13] = test system: HepG2; experiment: as above
[14] = test system: U2OS; experiment: as above
[15] = test system: Vero E6; experiment: as above

| SMILES | drug sensitivity score [1] | drug sensitivity score [2] | drug sensitivity score [3] | drug sensitivity score [4] | drug sensitivity score [5] | cell viability ([6]; 1 nM) [%] | cell viability ([6]; 10 nM) [%] | cell viability ([6]; 100 nM) [%] | cell viability ([6]; 1000 nM) [%] | cell viability ([6]; 10000 nM) [%] | cell viability ([7]; 1 nM) [%] | cell viability ([7]; 10 nM) [%] | cell viability ([7]; 100 nM) [%] | cell viability ([7]; 1000 nM) [%] | cell viability ([7]; 10000 nM) [%] | cell viability ([8]; 1 nM) [%] | cell viability ([8]; 10 nM) [%] | cell viability ([8]; 100 nM) [%] | cell viability ([8]; 1000 nM) [%] | cell viability ([8]; 10000 nM) [%] | cell viability ([9]; 1 nM) [%] | cell viability ([9]; 10 nM) [%] | cell viability ([9]; 100 nM) [%] | cell viability ([9]; 1000 nM) [%] | cell viability ([9]; 10000 nM) [%] | cell viability ([10]; 1 nM) [%] | cell viability ([10]; 10 nM) [%] | cell viability ([10]; 100 nM) [%] | cell viability ([10]; 1000 nM) [%] | cell viability ([10]; 10000 nM) [%] | relative viability EC50 [11] [µM] | relative viability EC50 [12] [µM] | relative viability EC50 [13] [µM] | relative viability EC50 [14] [µM] | relative viability EC50 [15] [µM] |
| --- | --- | --- | --- | --- | --- | --- | --- | --- | --- | --- | --- | --- | --- | --- | --- | --- | --- | --- | --- | --- | --- | --- | --- | --- | --- | --- | --- | --- | --- | --- | --- | --- | --- | --- | --- |
| CN1[C@@H]2CC[C@H]1C[C@@H](OC(=O)C(CO)c1ccccc1)C2 (stereo not given in full) [ATROPINE SULFATE] | 0 | 0 | 0 | 0 | 0 | 93.2 | 95 | 67.1 | 99.6 | 98.5 | 96.2 | 102 | 88.4 | 104 | 96.1 | 102 | 91.5 | 105 | 84.3 | 98.2 | 96.5 | 102 | 102 | 102 | 103 | 112 | 99.7 | 109 | 99.4 | 106 | > 10 | > 10 | > 10 | > 10 | > 10 |
| O=C(c1ccc(Cl)o1)N1CC2CNCC2C1 (stereo not given) [AZD1446] | 0 | 0 | 0 | 0 | 0 | 103 | 97.8 | 97 | 103 | 103 | 112 | 89.8 | 94.4 | 89.4 | 107 | 99.3 | 93.1 | 90.2 | 99.1 | 88 | 99.6 | 98.6 | 96.1 | 97.7 | 97.8 | 96.4 | 98.2 | 98.7 | 99.6 | 91.3 | > 10 | > 10 | > 10 | > 10 | > 10 |
| C[C@]12CC[C@H](O)CC1=CC[C@@H]1[C@@H]2CC[C@]2(C)C(c3cccnc3)=CC[C@@H]12 [Abiraterone (CB-7598)] | 0 | 0 | 0 | 0 | 0 | 87.1 | 92.3 | 100 | 101 | 98.1 | 96 | 107 | 100 | 98.3 | 100 | 97.7 | 92.7 | 103 | 95.1 | 103 | 95.3 | 101 | 95.7 | 103 | 104 | 99.9 | 95.2 | 93.9 | 96.4 | 112 | > 10 | > 10 | > 10 | > 10 | > 10 |
| CC1(C)C(=O)NC2=C1C(=O)C(=O)c1ccccc12 [BVT-948] | 7.7 | 4.2 | 5.1 | 5.6 | 4.7 | 92.1 | 104 | 99.6 | 86.8 | 0.9 | 98 | 101 | 104 | 102 | 20.3 | 97.5 | 95.4 | 88.7 | 94.8 | 21.3 | 101 | 98 | 95.8 | 100 | 0.1 | 98.3 | 102 | 104 | 97.9 | 19.6 | 2.09 | 3.34 | 2.63 | 3.17 | 2.97 |
| C[C@H]1C[C@H]2[C@@H]3CCC4=CC(=O)C=C[C@]4(C)[C@H]3C(=O)C[C@]2(C)[C@@]1(O)C(=O)CO [Betapar (Meprednisone)] | 0 | 0 | 0 | 0 | 0 | 86.1 | 91.1 | 87.4 | 103 | 94.8 | 92.9 | 93.2 | 91.5 | 91 | 97.8 | 83.6 | 97.3 | 95.5 | 95.9 | 86.5 | 97.6 | 98.3 | 96 | 98.2 | 95.1 | 103 | 102 | 101 | 99.7 | 97.4 | > 10 | > 10 | > 10 | > 10 | > 10 |
| COc1cc2nc(N3CCC(N4CCCCC4)CC3)nc(NC3CCCCCC3)c2cc1OC [C-021] | 5.3 | 6.9 | 5.5 | 5.4 | 5.9 | 101 | 101 | 108 | 93.4 | 23.4 | 98.4 | 100 | 94.7 | 90 | 4.2 | 108 | 93.7 | 99.4 | 101 | -0.2 | 99.4 | 98.7 | 99.1 | 94.6 | 16.7 | 96.8 | 102 | 99.1 | 97.5 | 0.8 | 2.47 | 2.31 | 3.24 | 2.65 | 2.98 |
| Cc1cc2c(C(N)=O)cccc2n1-c1nc2c(c(NCc3ccccc3)n1)COCC2 [CB-5083] | 10.8 | 11.9 | 17.3 | 7.7 | 17.6 | 97.8 | 92.8 | 103 | 50.1 | 13.6 | 101 | 94.3 | 104 | 47.1 | 1.7 | 107 | 95 | 104 | 2.8 | -0.2 | 100 | 102 | 98.4 | 87.1 | -0.3 | 98.8 | 103 | 102 | 1.1 | -0.4 | 0.883 | 0.941 | 0.36 | 2.12 | 0.338 |
